Assays:
Type in all cases: ADME, organism-based, Aqueous humor of eyeball
Settings in all cases: in vivo
Homo sapiens [1] = species on record: Homo sapiens; test: Drug level in human aqueous humor sample measured on basis of intraday target compound concentration of 4000 ng/ml by LC/MS method
Homo sapiens [2] = species on record: Homo sapiens; test: Drug level in human aqueous humor sample measured on basis of interday target compound concentration of 30 ng/ml by LC/MS method
Homo sapiens [3] = species on record: Homo sapiens; test: Drug level in human aqueous humor sample measured on basis of interday target compound concentration of 300 ng/ml by LC/MS method
Homo sapiens [4] = species on record: Homo sapiens; test: Drug level in human aqueous humor sample measured on basis of interday target compound concentration of 4000 ng/ml by LC/MS method
Homo sapiens [5] = species on record: Homo sapiens; test: Drug level in human aqueous humor sample measured on basis of intraday target compound concentration of 30 ng/ml by LC/MS method
Homo sapiens [6] = species on record: Homo sapiens; test: Drug level in human aqueous humor sample measured on basis of intraday target compound concentration of 300 ng/ml by LC/MS method

Drug uptake (Homo sapiens [1]): 3986 ng/mL
Drug uptake (Homo sapiens [2]): 31.4 ng/mL
Drug uptake (Homo sapiens [3]): 282 ng/mL
Drug uptake (Homo sapiens [4]): 3965 ng/mL
Drug uptake (Homo sapiens [5]): 26.9 ng/mL
Drug uptake (Homo sapiens [6]): 280 ng/mL
SMILES: CC[C@H](C)C[C@H](C)CCCCCCCCC(=O)N[C@H]1C[C@@H](O)[C@@H](NCCN)NC(=O)[C@@H]2[C@@H](O)CCN2C(=O)[C@H]([C@H](O)CCN)NC(=O)[C@H]([C@H](O)[C@@H](O)c2ccc(O)cc2)NC(=O)[C@@H]2C[C@@H](O)CN2C(=O)[C@H]([C@@H](C)O)NC1=O [CASPOFUNGIN]

From ChEMBL document CHEMBL1671730, “Rapid and sensitive liquid chromatography/mass spectrometry assay for caspofungin in human aqueous humor” (Antimicrob Agents Chemother, 2010)
